Target: T1, BLK (Homo sapiens, UniProt P51451)
T1 construct: purchased Thermo Fisher Scientific (Life Technologies) SelectScreen
Test: SelectScreen Z'LYTE
Format: biochemical
In short: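 Compound tested in SelectScreen activity assays, Z'LYTE for CSF1R, CDK1/cyclin B and MAP2K6 and Adapta for CAMK1. ATP for CAMK1 was listed as 10, and Km app was used for CSF1R. Results are expressed in percent.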

T1 sequence (P51451 whole entry): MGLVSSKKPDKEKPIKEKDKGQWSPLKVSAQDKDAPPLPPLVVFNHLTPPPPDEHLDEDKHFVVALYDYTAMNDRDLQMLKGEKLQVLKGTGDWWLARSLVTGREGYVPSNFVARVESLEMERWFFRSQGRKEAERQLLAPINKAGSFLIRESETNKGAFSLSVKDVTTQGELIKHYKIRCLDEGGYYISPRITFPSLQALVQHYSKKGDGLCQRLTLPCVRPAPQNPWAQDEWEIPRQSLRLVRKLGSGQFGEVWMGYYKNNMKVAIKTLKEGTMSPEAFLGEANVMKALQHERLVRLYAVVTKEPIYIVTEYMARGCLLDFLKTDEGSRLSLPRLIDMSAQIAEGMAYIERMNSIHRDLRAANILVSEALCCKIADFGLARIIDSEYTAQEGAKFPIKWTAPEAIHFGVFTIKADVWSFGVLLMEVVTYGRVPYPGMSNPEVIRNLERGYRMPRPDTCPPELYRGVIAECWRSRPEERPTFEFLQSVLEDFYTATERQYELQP

SMILES: CN(C(=O)CN1CCOCC1)c1ccc2sc3c(-c4cccc5c(=O)cc(N6CC7CCC(C6)O7)oc45)cccc3c2c1 [NU5455]
- inhibition at 1 µM: -8.9%

Source: article PMC6934184, “Selective DNA-PKcs inhibition extends the therapeutic index of localized radiotherapy and chemotherapy” (The Journal of Clinical Investigation, 2019)
